What was measured:
Assay type in all cases: cell-based
[1] = target: T1, human muscarinic M1 receptor (Homo sapiens, UniProt P11229); assay: Alphascreen Surefire phospho-ERK1/2 functional assay, M1; conditions: for EC50 / M1 % Emax cf. ACh: CHO cells stably expressing human M1; for EC50: phospho-ERK1/2, read-out: pEC50 M1 (converted); for Emax: CHO, read-out: M1 % Emax cf. ACh, CHO cells stably expressing human M1; for Emax / M1 % Emax cf. ACh: Emax relative to ACh
T1 sequence (P11229 1-460): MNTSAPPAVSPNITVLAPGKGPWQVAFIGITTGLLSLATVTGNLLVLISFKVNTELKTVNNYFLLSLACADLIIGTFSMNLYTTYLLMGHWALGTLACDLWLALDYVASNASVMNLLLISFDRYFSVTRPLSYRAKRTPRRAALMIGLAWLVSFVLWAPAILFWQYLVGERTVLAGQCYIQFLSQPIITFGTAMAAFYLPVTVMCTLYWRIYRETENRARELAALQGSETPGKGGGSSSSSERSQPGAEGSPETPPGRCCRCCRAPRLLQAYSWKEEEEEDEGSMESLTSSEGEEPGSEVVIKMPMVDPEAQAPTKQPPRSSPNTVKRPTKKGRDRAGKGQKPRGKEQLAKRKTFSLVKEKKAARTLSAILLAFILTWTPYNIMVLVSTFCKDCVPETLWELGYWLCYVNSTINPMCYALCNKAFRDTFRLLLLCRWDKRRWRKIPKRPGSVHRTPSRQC
Method: (§1) Functional assays were performed using the Alphascreen Surefire phospho-ERK1/2 assay (Crouch & Osmond, Comb. Chem. High Throughput Screen, 2008). ERK1/2 phosphorylation is a downstream consequence of both Gq/11 and Gi/o protein coupled receptor activation, making it highly suitable for the assessment of M1, M3 (Gq/11 coupled) and M2, M4 receptors (Gi/o coupled), rather than using different assay formats for different receptor subtypes. CHO cells stably expressing the human muscarinic M1, M2, M3 or M4 receptor were plated (25K/well) onto 96-well tissue culture plates in MEM-alpha+10% dialysed FBS. Once adhered, cells were serum-starved overnight. Agonist stimulation was performed by the addition of 5 μL agonist to the cells for 5 min (37° C.). Media was removed and 50 μL of lysis buffer added. After 15 min, a 4 μL sample was transferred to 384-well plate and 7 μL of detection mixture added. Plates were incubated for 2 h with gentle agitation in the dark and then read on a PHERAstar plate reader.
(§2) pEC50 and Emax figures were calculated from the resulting data for each receptor subtype.

[2] = target: T2, human muscarinic M2 receptor (Homo sapiens, UniProt P08172); assay: Alphascreen Surefire phospho-ERK1/2 functional assay, M2; conditions: for EC50: CHO cells stably expressing human M2, phospho-ERK1/2, read-out: pEC50 M2 (converted); for Emax: CHO, read-out: M2 % Emax cf. ACh
T2 sequence (P08172 1-466): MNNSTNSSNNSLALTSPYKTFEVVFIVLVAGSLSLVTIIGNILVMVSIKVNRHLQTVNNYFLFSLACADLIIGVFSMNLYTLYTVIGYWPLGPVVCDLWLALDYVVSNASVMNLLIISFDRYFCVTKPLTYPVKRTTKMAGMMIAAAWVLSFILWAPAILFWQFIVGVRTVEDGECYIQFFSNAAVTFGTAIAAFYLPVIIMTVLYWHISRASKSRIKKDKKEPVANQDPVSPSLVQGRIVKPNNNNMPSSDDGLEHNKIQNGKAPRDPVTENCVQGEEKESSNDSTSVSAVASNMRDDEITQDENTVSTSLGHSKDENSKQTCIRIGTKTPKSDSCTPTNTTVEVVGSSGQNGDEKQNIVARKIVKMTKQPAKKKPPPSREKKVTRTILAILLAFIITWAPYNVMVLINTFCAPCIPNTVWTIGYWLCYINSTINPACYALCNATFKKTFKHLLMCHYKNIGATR
Method: as §1, §2

[3] = target: T3, human muscarinic M3 receptor (Homo sapiens, UniProt P20309); assay: Alphascreen Surefire phospho-ERK1/2 functional assay, M3; conditions: for EC50: phospho-ERK1/2, read-out: pEC50 M3 (converted); for Emax: CHO, read-out: M3 % Emax cf. ACh
T3 construct: expressed in transfected cells
T3 sequence (P20309 whole entry): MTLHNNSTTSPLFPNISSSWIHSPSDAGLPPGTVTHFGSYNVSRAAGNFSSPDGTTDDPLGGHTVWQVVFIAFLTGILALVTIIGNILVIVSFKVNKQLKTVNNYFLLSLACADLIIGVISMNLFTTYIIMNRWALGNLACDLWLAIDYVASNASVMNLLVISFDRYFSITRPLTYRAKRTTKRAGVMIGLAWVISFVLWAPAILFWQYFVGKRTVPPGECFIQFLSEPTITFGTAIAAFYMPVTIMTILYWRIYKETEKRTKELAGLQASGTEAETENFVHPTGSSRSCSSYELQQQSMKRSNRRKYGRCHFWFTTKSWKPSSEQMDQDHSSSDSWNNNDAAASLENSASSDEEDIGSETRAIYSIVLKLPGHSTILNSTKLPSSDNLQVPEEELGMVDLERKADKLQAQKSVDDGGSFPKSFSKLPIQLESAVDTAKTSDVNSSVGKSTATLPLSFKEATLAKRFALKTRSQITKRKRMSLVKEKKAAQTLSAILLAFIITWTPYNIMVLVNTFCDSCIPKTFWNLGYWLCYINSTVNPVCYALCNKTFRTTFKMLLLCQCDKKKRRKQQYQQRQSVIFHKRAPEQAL
Method: as §1, §2

[4] = target: T4, human muscarinic M4 receptor (Homo sapiens, UniProt P08173); assay: Alphascreen Surefire phospho-ERK1/2 functional assay, M4; conditions: for EC50 / M4 % Emax cf. ACh: CHO cells stably expressing human M4; for EC50: phospho-ERK1/2, read-out: pEC50 M4 (converted); for Emax: CHO, read-out: M4 % Emax cf. ACh, CHO cells stably expressing human M4; for Emax / M4 % Emax cf. ACh: Emax relative to ACh
T4 construct: expressed in transfected cells
T4 sequence (P08173 1-479): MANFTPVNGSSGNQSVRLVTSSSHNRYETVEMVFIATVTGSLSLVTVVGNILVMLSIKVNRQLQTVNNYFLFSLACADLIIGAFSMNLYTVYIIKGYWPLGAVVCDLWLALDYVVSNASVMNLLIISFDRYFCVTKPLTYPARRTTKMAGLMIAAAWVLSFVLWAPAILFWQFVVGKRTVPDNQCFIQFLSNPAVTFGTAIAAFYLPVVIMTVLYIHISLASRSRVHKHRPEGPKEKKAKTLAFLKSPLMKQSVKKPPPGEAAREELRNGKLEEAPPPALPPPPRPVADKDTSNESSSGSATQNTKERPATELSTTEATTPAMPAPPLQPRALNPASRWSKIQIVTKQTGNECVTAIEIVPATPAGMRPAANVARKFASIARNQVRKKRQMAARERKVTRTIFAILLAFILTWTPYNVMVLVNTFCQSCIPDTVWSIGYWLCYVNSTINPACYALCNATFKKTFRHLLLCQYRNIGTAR
Method: as §1, §2

[5] = CHO cells stably expressing human M3

Row | Structure (SMILES) | EC50 [1] [nM] | Emax [1] [%] | EC50 [2] [nM] | Emax [2] [%] | EC50 [3, 5] [nM] | Emax [3] [%] | EC50 [4] [nM] | Emax [4] [%] | M1 % Emax cf. ACh [1] [%] | M4 % Emax cf. ACh [4] [%] | M3 % Emax cf. ACh ([3]; CHO cells stably expressing human M3, Emax relative to ACh) [%]
1 | CCOC(=O)N1CCCN(C2CCC(C#N)(c3cccc(F)c3)CC2)CC1 (mixture of isomers) [3-2 mixture of isomers] | 25.1 | 96 | > 20000 | 7 | > 20000 | 46 | 74.1 | 76 |  |  | 
2 | CCOC(=O)N1CCCN(C2CCC(C#N)(c3ccc(F)cc3)CC2)CC1 (mixture of isomers) [3-3 mixture of isomers] | 9.77 | 101 | > 20000 | 38 | > 20000 | 35 | 63.1 | 85 |  |  | 
3 | CCOC(=O)N1CCCN(C2CCC(C#N)(c3ccccc3Cl)CC2)CC1 (mixture of isomers) [3-4 mixture of isomers] | 295 | 86 | > 20000 | 12 | > 20000 | 40 | 832 | 46 |  |  | 
4 | CCOC(=O)N1CCCN(C2CCC(C#N)(c3cccc(Cl)c3)CC2)CC1 (mixture of isomers) [3-5 mixture of isomers] | 83.2 | 101 | > 20000 | 5 | > 20000 | 36 | 309 | 47 |  |  | 
5 | CCOC(=O)N1CCCN(C2CCC(C#N)(c3ccc(Cl)cc3)CC2)CC1 (mixture of isomers) [3-6 mixture of isomers] | 9.55 | 105 | > 20000 | 11 | > 20000 | 38 | 100 | 62 |  |  | 
6 | CCOC(=O)N1CCCN(C2CCC(C#N)(c3ccccc3C)CC2)CC1 (mixture of isomers) [3-7 mixture of isomers] | 389 | 101 | > 20000 | 35 | > 20000 | 34 | 1700 | 48 |  |  | 
7 | CCOC(=O)N1CCCN(C2CCC(C#N)(c3cccc(C)c3)CC2)CC1 (mixture of isomers) [3-8 mixture of isomers] | 35.5 | 106 | > 20000 | 18 | > 20000 | 7 | 105 | 62 |  |  | 
8 | CCOC(=O)N1CCCN(C2CCC(C#N)(c3ccc(OC)cc3)CC2)CC1 (mixture of isomers) [3-9 mixture of isomers] | 115 | 98 | > 20000 | 33 | > 20000 | 0 | > 20000 | 2 |  |  | 
9 | CCOC(=O)N1CCCN(C2CCC(C#N)(c3ccccn3)CC2)CC1 (mixture of isomers) [3-11 mixture of isomers] | 72.4 | 97 | > 20000 | 43 | > 20000 | 15 | 389 | 99 |  |  | 
10 | CCOC(=O)N1CCCN(C2CCC(C#N)(c3ccncc3)CC2)CC1 (mixture of isomers) [3-12 mixture of isomers] | 155 | 116 | > 20000 | 5 | > 20000 | 3 | 1070 | 48 |  |  | 
11 | CCOC(=O)N1CCCN(C2CCC(C#N)(c3ccc(Cl)cn3)CC2)CC1 (mixture of isomers) [3-16 mixture of isomers] | 6.61 | 103 | > 20000 | 10 | > 20000 | 39 | 126 | 90 |  |  | 
12 | CCOC(=O)NCC1CCN(C2CCC3(CC2)C(=O)Nc2ccccc23)CC1 (single isomer, unassigned) [7-2 isomer 2] | 389 |  |  |  |  |  | > 20000 |  | 66 | 10 | 

Now from value to molecule:

Row | EC50 [1] [nM] | Emax [1] [%] | EC50 [2] [nM] | Emax [2] [%] | EC50 [3, 5] [nM] | Emax [3] [%] | EC50 [4] [nM] | Emax [4] [%] | M1 % Emax cf. ACh [1] [%] | M4 % Emax cf. ACh [4] [%] | M3 % Emax cf. ACh ([3]; CHO cells stably expressing human M3, Emax relative to ACh) [%] | Structure (SMILES)
13 | 562 |  |  |  |  |  | > 20000 |  | 51 | 15 |  | Cc1noc(C2CC3(CCN(C4CCC(C#N)(c5ccc(F)cn5)CC4)C3)C2)n1 (single isomer, unassigned) [21-3 Isomer 3]
14 | 162 |  |  |  |  |  | 69.2 |  | 80 | 75 |  | Cc1noc(C2CC3(CCN(C4CCC(C#N)(c5ccc(F)cn5)CC4)C3)C2)n1 (single isomer, unassigned) [21-3 Isomer 4]
15 | 2140 | 47 |  |  |  |  | 309 | 68 |  |  |  | COc1ccc(C2(C#N)CCC(N3CCC4(CC(c5nc(C)no5)C4)C3)CC2)nc1 (single isomer, unassigned) [21-4 Isomer 4]
16 | > 20000 |  |  |  |  |  | 1070 | 55 | 18 |  |  | Cc1ccc(C2(C#N)CCC(N3CCC4(CC(c5nc(C)no5)C4)C3)CC2)nc1 (single isomer, unassigned) [21-5 Isomer 1]
17 | 14500 |  |  |  |  |  | 1260 |  | 82 | 51 |  | Cc1ccc(C2(C#N)CCC(N3CCC4(CC(c5nc(C)no5)C4)C3)CC2)nc1 (single isomer, unassigned) [21-5 Isomer 2]
18 | 347 | 113 |  |  | > 20000 | 8 | 251 | 78 |  |  |  | Cc1noc(C2CC2CNC2CCC3(CC2)C(=O)Nc2ccccc23)n1 (single isomer, unassigned) [23-1 Isomer 1]
19 | 224 |  |  |  |  |  | > 20000 |  | 51 | 14 |  | COc1ccc2c(c1)C1(CCC(N3CCC4(CC(c5nc(C)no5)C4)C3)CC1)C(=O)N2 (single isomer, unassigned) [26-2 Isomer 3]
20 | 977 | 59 |  |  |  |  | 832 | 45 |  |  |  | N#CC1(c2ccc(F)cn2)CCC(N[C@@H]2CC[C@H](c3nc(C(F)(F)F)no3)C2)CC1 (single isomer, unassigned) [28-1 Isomer 2]
21 | 3470 | 40 |  |  |  |  | 955 | 55 |  |  |  | Cc1ccc(C2(C#N)CCC(N[C@@H]3CC[C@H](c4nc(C(F)(F)F)no4)C3)CC2)nc1 (single isomer, unassigned) [28-2 Isomer 2]
22 |  |  |  |  |  |  |  |  |  | 110 | 115 | CC(=O)OCC[N+](C)(C)C [ACh]
